Where two headings read alike, the source gives them in different places. No end group written: not given here.
Key:
FcγIIIa = format: binding
FcγIIb = format: binding
human C1q = test: Reverse ELISA: inhibition of PAP immune complex binding to C1q coated plates
Fcγ1 = format: binding
FcγIIIb (NA2) = format: binding
recombinant TNF-α = format: binding
recombinant human FcγIIa = format: binding
Method: The results of 1:250 and 1:500 serial dilutions (ADE was most evident at serum dilutions of 1:250 to 1:500) of the DENV-IgG-IC were tested against inhibition of DENV-IgG-IC binding to huFcγRIIa coated microtiter wells. Results using huFcγRIIa coated wells with either a 1:250 dilution of DENV-IgG-IC with no inhibitor, a 1:250 dilution of DENV-IgG-IC with SEQ ID NO:20, a 1:500 dilution of DENV-IgG-IC with no inhibitor, and a 1:500 dilution of DENV-IgG-IC with SEQ ID NO:20 are shown in Table 5.

FcγIIa (H131 allele) = format: binding
[1] = tested on: Dengue Virus recombinant NS1; format: binding; details: summary of Table 6
Method: PAP IC were incubated with either no peptide or with SEQ ID NO:20 for one hour.

FcγIIb/c = format: binding
FcγIIa (R131 allele) = test: Reverse ELISA: inhibition of PAP-IC binding to FcγIIa (R131 allele) coated plates; details: PAP pre-incubated with peptide 1 h; positive control 1.599

FcγIIIb (NA2), sequence (O75015 17-200): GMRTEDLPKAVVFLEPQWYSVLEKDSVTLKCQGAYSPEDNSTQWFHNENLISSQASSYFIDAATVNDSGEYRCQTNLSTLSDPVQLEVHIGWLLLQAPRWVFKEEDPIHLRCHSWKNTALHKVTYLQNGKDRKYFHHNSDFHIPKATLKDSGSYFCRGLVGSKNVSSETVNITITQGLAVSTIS

With “APPCAFHLGELVWCT (cysteine pairing not given here) [SEQ ID NO:18]” the “OD405 FcγIIIa” value (FcγIIIa) was 0.880 and the “OD405 FcγIIb” value (FcγIIb) was 0.380.
With “APPCARHLGELVWCT (cysteine pairing not given here) [SEQ ID NO:16]” the “OD405 FcγIIIa” value (FcγIIIa) was 0.709, the “inhibition of C1q binding (ranking in words)” value (human C1q) was “next best result” and the “OD405 FcγIIb” value (FcγIIb) was 0.768.
“APPCAWHLGELVWCT (cysteine pairing not given here) [SEQ ID NO:14]” was tested, and the “OD405 FcγIIIa” value (FcγIIIa) was 0.530 and the “OD405 FcγIIb” value (FcγIIb) was 0.562.
For “Ala-Pro-Pro-Asp-Cys-Ala-Trp-His-Leu-Gly-Glu-Leu-Val-Trp-Cys-Thr [SEQ ID NO:20]”, the “% inhibition of IC binding, Fcγ1” value (Fcγ1) was 89%, the “Fcγ1 (read at 405 nm)” value (Fcγ1) was 0.264 and the “% inhibition of IC binding, FcγIIIb (NA2)” value (FcγIIIb (NA2)) was 91%. The “FcγIIIb (NA2) (read at 405 nm)” value (FcγIIIb (NA2)) was 0.266, the “OD405 FcγIIIa” value (FcγIIIa) was 0.670 and the OD405 (recombinant TNF-α) was 0.086. The “inhibition of PAP-IC binding to recombinant TNFα coated plates (in words)” value (recombinant TNF-α) was “marked ability to inhibit the binding”, the “DENV-IgG-IC binding to huFcγRIIa coated wells (ELISA reading)” value (recombinant human FcγIIa; 1:250 dilution of DENV2 (16681)-DENV convalescent IgG-IC, no peptide control 2.885) was 0.265 and the “DENV-IgG-IC binding to huFcγRIIa coated wells (ELISA reading)” value (recombinant human FcγIIa; 1:500 dilution of DENV2 (16681)-DENV convalescent IgG-IC, no peptide control 2.362) was 0.289. The “inhibition of DENV2-anti-DENV convalescent IgG-IC binding to FcγIIa coated plates (in words)” value (recombinant human FcγIIa; summary of Table 5) was “marked ability to inhibit binding”, the “FcγIIa* (H131 allele) (read at 405 nm)” value (FcγIIa (H131 allele)) was 0.209 and the “inhibition of C1q binding (ranking in words)” value (human C1q) was “greatest inhibition of C1q binding”. For the same substance, the “inhibition of PAP-IC binding to recombinant DENV NS1 coated plates (in words)” value [1] was “marked ability to inhibit the binding”, the “FcγIIb/c (read at 405 nm)” value (FcγIIb/c) was 0.266 and the “OD405 FcγIIb” value (FcγIIb) was 0.496.
In the case of “Asp-Cys-Ala-Phe-His-Leu-Gly-Glu-Leu-Val-Trp-Cys-Thr [SEQ ID NO:3]”, the “OD405 FcγIIIa” value (FcγIIIa) is reported as 0.810 and the “OD405 FcγIIb” value (FcγIIb) is reported as 0.510.
“Asp-Cys-Ala-Trp-His-Leu-Gly-Glu-Leu-Val-Trp-Cys-Thr [SEQ ID NO:2]” was tested, and the “OD405 FcγIIIa” value (FcγIIIa) was 0.741, the “OD405 FcγIIa (R131 allele)” value (FcγIIa (R131 allele)) was 0.561 and the “OD405 FcγIIb” value (FcγIIb) was 0.532.

— patent US8815813B2, “Methods for treating immune-mediated Dengue Fever infections and antibody-dependent enhancement of Dengue Fever infections, including Dengue Hemorrhagic Fever and Dengue Shock Syndrome” (priority 2008, dated 2014)
